Assay results from ChEMBL document CHEMBL1201862, “PubChem BioAssay data set” (2004).
Calls of active or inactive are those of the source.

Columns and labels:
[1] = HepG2 cell cytotoxicity, dose response, cytotoxicity control for Shn3 inhibitor project, CellTiter-Glo, cherry-picked (AID 624134); format: functional, cell-based
[2] = Shn3 3'UTR reporter inhibitors, dose response, cell-based, Clone20 osteoblasts, firefly luciferase, cherry-picked (AID 624132); format: functional;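 further: firefly luciferase luminescence from reporter carrying the Shn3 3'UTR in osteoblasts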
[3] = Luminescence Cell-Based Dose Retest to Confirm Inhibitors of Cancer Stem Cells. [Related pubchem assays (depositor defined):AID2717, AID2721]; format: functional; conditions: Homo sapiens
[4] = control 3'UTR Renilla luciferase suppression, dose response, counter-screen for Shn3 inhibitor project, cell-based, Clone20-Shn3RL, cherry-picked (AID 624133); format: functional
[5] = inhibitors of intracellular T. cruzi replication, confirmation, NIH3T3 host cells, beta-gal luminescence (AID 2044); format: functional, cell-based;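 further: intracellular parasites grown in NIH/3T3 mouse fibroblasts as host cells; luminescent beta-galactosidase reporter signal from transgenic T. cruzi replicating inside host cells; inhibitors lower the luminescence signal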
[6] = target: X-box-binding protein 1 (Homo sapiens, UniProt P17861); format: functional, Cricetulus griseus;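 further: confirmatory dose-response counter-screen serving a CHOP assay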
Chain of X-box-binding protein 1 (P17861 whole entry): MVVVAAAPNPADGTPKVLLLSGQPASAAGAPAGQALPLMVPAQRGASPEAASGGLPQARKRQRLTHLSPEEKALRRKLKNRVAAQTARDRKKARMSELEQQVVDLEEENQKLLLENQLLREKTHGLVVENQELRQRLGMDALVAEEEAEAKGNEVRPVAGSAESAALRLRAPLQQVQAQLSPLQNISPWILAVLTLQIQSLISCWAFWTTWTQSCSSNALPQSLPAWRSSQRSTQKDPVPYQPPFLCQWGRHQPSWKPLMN

[7] = cytotoxicity toward NIH3T3 fibroblasts, dose response, counter-screen, cell-based, ATP luminescence, mouse fibroblasts (AID 2010); format: functional;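 further: cells exposed to compound for about 90 hours before reading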
[8] = target: T1, RNA-binding protein pos-1 (Caenorhabditis elegans, UniProt G5EF15); test: inhibitors of POS-1/mex-3 RNA binding, dose response, biochemical, fluorescence polarization (AID 1964);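 further: purified POS-1 fused to maltose binding protein made in E. coli; potency of compounds blocking POS-1 binding to fluorescent RNA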
T1 sequence (G5EF15 whole entry): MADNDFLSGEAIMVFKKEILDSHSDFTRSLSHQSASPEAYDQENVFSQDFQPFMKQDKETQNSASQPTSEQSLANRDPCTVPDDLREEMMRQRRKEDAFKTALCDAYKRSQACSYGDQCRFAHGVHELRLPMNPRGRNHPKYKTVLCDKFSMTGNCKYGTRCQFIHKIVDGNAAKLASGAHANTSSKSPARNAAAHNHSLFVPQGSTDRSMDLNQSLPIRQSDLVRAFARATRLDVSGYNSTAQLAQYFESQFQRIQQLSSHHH

[9] = target: T2, Voltage-dependent T-type calcium channel subunit alpha-1H (Homo sapiens, UniProt O95180); test: Inhibitors of T-Type Calcium Channels. [Related pubchem assays (depositor defined):AID449739, AID463087, AID489005, AID493041, AID504579, AID504584, AID504619, AID504628]; format: functional
T2 sequence (O95180 whole entry): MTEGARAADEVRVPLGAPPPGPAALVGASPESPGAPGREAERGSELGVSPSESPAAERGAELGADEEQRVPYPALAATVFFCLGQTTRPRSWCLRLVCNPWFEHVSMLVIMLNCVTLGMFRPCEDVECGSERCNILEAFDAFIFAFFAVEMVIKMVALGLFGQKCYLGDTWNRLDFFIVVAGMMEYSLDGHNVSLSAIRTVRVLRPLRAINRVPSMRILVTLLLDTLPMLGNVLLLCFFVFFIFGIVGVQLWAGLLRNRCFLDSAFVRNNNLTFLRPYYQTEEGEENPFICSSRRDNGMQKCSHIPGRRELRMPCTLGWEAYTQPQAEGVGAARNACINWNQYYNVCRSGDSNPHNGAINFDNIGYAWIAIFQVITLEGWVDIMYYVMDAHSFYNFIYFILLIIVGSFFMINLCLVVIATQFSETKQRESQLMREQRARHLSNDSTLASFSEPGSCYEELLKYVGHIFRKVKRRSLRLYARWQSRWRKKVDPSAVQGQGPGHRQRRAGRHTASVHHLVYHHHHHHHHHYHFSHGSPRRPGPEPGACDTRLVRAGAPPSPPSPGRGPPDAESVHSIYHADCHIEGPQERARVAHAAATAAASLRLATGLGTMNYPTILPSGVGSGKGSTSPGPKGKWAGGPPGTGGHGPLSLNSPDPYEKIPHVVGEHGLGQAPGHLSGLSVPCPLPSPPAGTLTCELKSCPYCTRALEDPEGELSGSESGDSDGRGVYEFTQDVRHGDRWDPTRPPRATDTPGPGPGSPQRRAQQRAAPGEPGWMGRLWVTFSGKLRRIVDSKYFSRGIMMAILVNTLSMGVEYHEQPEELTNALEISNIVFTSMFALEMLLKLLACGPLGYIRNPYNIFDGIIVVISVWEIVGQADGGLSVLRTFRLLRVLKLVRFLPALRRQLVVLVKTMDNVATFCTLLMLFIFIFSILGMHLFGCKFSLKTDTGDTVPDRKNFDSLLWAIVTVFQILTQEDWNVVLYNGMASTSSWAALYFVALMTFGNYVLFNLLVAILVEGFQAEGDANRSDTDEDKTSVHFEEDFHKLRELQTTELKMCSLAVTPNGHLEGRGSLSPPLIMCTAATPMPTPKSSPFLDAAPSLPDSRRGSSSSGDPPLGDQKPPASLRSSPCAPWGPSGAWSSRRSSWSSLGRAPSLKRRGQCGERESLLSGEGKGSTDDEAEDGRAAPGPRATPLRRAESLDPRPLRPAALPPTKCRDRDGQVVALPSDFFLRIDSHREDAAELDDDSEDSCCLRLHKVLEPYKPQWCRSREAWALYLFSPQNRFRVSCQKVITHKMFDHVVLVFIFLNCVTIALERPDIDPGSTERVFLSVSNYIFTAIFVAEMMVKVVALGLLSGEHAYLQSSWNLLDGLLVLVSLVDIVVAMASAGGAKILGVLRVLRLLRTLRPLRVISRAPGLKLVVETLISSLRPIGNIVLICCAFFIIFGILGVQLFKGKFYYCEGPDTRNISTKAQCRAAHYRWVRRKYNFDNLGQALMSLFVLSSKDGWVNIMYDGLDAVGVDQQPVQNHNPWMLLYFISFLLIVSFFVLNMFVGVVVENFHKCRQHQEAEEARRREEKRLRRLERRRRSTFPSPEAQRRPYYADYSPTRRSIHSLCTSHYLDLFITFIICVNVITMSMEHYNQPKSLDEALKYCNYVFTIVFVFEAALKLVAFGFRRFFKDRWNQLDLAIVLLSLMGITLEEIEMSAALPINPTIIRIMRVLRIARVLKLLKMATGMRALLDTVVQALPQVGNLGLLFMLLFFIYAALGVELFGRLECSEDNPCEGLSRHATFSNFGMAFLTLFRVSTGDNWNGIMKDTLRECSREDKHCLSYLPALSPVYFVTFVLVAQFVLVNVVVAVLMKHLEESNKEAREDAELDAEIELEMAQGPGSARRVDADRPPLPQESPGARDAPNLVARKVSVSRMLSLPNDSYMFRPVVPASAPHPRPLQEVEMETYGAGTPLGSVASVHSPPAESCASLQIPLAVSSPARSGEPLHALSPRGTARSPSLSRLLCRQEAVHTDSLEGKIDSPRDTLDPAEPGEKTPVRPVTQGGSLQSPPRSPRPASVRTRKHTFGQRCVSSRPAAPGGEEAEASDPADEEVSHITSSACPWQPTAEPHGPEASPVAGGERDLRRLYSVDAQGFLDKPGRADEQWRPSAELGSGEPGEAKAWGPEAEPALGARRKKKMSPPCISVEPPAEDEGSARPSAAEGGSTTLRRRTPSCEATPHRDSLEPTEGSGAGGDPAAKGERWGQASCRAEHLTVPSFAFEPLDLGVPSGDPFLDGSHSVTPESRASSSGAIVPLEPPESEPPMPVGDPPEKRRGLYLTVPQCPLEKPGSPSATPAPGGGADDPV

[10] = target: T3, Zinc finger protein mex-5 (Caenorhabditis elegans, UniProt Q9XUB2); test: MEX-5/TCR-2 RNA interaction inhibitors, dose response, biochemical, C. elegans, fluorescence polarization (AID 1960)
T3 sequence (Q9XUB2 whole entry): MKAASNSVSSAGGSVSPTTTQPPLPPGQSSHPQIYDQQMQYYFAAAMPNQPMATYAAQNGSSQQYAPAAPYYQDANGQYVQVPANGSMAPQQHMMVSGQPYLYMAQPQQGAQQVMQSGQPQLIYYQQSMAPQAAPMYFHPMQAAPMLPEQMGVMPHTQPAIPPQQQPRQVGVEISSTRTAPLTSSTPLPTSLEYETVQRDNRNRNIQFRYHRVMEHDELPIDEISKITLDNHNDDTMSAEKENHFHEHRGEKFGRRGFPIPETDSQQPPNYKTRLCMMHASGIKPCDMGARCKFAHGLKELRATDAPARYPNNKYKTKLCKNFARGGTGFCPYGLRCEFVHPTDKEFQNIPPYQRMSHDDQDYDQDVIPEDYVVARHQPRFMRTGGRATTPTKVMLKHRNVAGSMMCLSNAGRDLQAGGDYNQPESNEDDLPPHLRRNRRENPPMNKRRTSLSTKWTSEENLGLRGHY

[11] = target: T2, Voltage-dependent T-type calcium channel subunit alpha-1H; format: functional
[12] = test system: BJ; test: cytotoxicity toward BJ-TERT-LT-ST fibroblasts, dose response, cell-based, RAS-independent, luminescence (AID 1935); format: functional; conditions: Homo sapiens;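 further: BJ fibroblasts immortalized with TERT plus LT and ST oncogenes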
[13] = test system: BJ; test: cells; format: functional, cell-based; conditions: Homo sapiens
[14] = cytotoxicity toward DRD oncogenic fibroblasts, dose response, cell-based, non-viral oncogenic, luminescence (AID 1934); format: functional; conditions: Homo sapiens
[15] = target: G-protein coupled receptor 35 (Homo sapiens, UniProt Q9HC97); test: GPR35 antagonists blocking zaprinast-driven arrestin recruitment, primary screen, imaging, U2OS, beta-arrestin-GFP, zaprinast agonist (AID 2058); format: functional;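 further: antagonist potency meaning inhibition of agonist-induced arrestin redistribution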
Chain of G-protein coupled receptor 35 (Q9HC97 whole entry): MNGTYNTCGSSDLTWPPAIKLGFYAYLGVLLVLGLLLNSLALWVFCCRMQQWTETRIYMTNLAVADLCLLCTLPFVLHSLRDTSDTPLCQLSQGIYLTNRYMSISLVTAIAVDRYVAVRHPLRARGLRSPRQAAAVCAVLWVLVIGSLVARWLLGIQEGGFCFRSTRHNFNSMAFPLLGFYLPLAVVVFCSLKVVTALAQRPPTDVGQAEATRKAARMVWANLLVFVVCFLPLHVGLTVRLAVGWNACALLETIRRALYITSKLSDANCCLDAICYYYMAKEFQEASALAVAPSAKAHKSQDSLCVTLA

[16] = target: G-protein coupled receptor 55 (Homo sapiens, UniProt Q9Y2T6); test: GPR55 agonists via beta-arrestin recruitment, primary screen, imaging, U2OS cells, beta-arrestin-GFP redistribution (AID 1961); format: functional
Chain of G-protein coupled receptor 55 (Q9Y2T6 whole entry): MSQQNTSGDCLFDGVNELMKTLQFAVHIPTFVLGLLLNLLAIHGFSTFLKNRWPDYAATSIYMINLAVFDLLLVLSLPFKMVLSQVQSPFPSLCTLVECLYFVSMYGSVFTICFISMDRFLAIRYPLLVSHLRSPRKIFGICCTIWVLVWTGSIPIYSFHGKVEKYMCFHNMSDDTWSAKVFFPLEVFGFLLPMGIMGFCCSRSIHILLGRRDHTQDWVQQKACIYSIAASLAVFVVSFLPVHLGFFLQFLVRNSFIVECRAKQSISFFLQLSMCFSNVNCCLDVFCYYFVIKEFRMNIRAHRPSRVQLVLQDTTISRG

[17] = test system: BJ; test: cytotoxicity toward Ras-transformed BJeLR fibroblasts, dose response, cell-based, alamar blue fluorescence, cherrypicked samples (AID 2631); format: functional; conditions: Homo sapiens;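 further: confirmatory dose-response assay in RAS-dependent BJ fibroblasts engineered with TERT, LT and ST, with cytotoxicity read by fluorescence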
[18] = microbe, parasite or virus in culture; format: functional; conditions: Mycobacterium tuberculosis
[19] = test system: BJ; test: cytotoxicity toward BJ-TERT fibroblasts, dose response, cell-based, RAS-independent, luminescence (AID 1933); format: functional; conditions: Homo sapiens
[20] = target: Alkaline phosphatase, placental type (Homo sapiens, UniProt P05187); test: PLAP enzyme inhibitors, confirmation, biochemical, luminescence (AID 1512); format: functional
Chain of Alkaline phosphatase, placental type (P05187 whole entry): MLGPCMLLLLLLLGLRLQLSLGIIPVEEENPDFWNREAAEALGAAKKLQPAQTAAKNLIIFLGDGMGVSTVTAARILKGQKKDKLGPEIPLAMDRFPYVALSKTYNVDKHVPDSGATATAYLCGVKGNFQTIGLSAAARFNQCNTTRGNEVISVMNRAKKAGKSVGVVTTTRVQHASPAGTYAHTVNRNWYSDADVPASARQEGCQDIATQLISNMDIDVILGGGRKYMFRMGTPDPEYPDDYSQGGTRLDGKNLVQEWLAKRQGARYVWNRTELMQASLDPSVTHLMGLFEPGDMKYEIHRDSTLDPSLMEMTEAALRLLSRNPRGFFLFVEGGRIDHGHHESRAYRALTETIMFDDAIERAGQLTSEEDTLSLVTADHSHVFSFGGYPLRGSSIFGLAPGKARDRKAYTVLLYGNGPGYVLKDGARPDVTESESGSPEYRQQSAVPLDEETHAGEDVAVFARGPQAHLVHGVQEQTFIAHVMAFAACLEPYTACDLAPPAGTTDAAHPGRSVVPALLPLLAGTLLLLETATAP

[21] = target: T4, Alkaline phosphatase, tissue-nonspecific isozyme (Homo sapiens, UniProt P05186); test: human TNAP enzyme inhibitors, SAR follow-up, biochemical, luminescent, dose response (AID 1056)
T4 sequence (P05186 whole entry): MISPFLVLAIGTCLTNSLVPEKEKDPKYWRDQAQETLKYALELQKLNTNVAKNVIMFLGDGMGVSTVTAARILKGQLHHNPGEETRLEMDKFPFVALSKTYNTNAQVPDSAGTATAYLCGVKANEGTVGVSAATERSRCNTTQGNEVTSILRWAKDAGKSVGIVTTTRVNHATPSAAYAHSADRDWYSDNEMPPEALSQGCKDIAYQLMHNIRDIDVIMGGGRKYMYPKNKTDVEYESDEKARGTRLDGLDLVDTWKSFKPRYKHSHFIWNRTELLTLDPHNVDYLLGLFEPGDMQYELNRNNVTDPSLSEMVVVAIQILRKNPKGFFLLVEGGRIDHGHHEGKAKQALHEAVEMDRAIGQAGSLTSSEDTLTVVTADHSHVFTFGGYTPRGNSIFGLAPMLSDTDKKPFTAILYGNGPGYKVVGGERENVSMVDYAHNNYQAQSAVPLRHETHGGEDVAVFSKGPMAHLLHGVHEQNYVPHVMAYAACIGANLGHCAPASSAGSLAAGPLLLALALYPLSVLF

Cc1cc(Nc2cccc([N+](=O)[O-])c2)n2c(nc3ccccc32)c1C#N
AC50 [1]: 2.15 µM (active) | AC50 [2]: 1.9 µM (active) | AC50 [3]: 2.33 µM (active) | AC50 [4]: 3.46 µM (active) | EC50 [5]: 2.47 µM (active) | Absolute IC50 (XBP1) [6]: 10 µM | EC50 [7]: > 60 µM (inconclusive)

Cc1ccc(N2C(=O)c3cccc4c(N5CCN(C)CC5)ccc(c34)C2=O)c2cccnc12
EC50 [8]: 7.8 µM (active) | EC50 [9]: 4.61 µM (active) | EC50 [10]: 7.84 µM (active) | EC50 [11]: 0.658 µM (active)

CC(C)(C)n1nnnc1CN1CCN(C(c2ccccc2)c2ccccc2)CC1
EC50 [9]: 7.64 µM (active) | EC50 [11]: 6.42 µM (active)

COc1ccc(C=C2C=C(C(C)(C)C)C(=O)C(C(C)(C)C)=C2)cc1OC
EC50 [12]: 3.54 µM (inconclusive) | EC50 [13]: 6.69 µM (active) | AC50 [3]: 1.88 µM (active) | EC50 [14]: 5.35 µM (inconclusive) | IC50 [15]: 3.16 µM (active) | EC50 [16]: > 32 µM (inactive) | EC50 [17]: 0.571 µM (inconclusive) | CC50 [18]: 12.8 µM (active) | EC50 [19]: 2.93 µM (active)

Cc1cc(C)c(C#N)c(SCC(=O)c2ccc3c(c2)OCO3)n1
IC50 [20]: > 100 µM (inactive) | IC50 [21]: > 100 µM (inactive)
